Data set [1] has as its system HBV. Put plainly: HBV inhibitory activity: HBV DNA in the culture medium of HepG2.2.15 cells by q-PCR. The conditions noted are these: HepG2.2.15 cells, 6 days of compound treatment, HBV DNA in culture medium by q-PCR, highest concentration 10 μM, read-out: EC50. The data set is classed as cell-based. Put shortly:
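Supernatant HBV DNA quantified by q-PCR after a 6-day compound exposure, with one mid-course medium change, of HepG2.2.15 cells (stably integrated HBV; 40,000 per well, 2% FBS). Eight-point 3-fold series topped at 10 μM for antiviral EC50; separate plates of 5,000 cells per well with 100 μM top give CC50.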

The nature of data set [2]: Cytotoxicity determination in HepG2.2.15 cells (CCK-8). The conditions noted are these: human, 6 days of compound treatment, CCK-8, highest concentration 100 μM. Format: cell-based. Put shortly:
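CC50 is from CCK-8 absorbance (450 nm, 630 nm reference) after 2.5 h with reagent. Before that, compounds were applied for six days, top concentration 100 μM, eight threefold dilutions, one mid-course medium change, to stably HBV-integrated HepG2.2.15 cells plated at 5,000/well in 2% FBS.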

The mark [3] stands for this setting: Hepatitis B virus, HepG2.2.15, 144 h.

The structures appear in SMILES notation. Where two headings read alike, the source gives them in different places.

Broadly, the EC50 is the concentration that produces a half-maximal response. What is called CC50 is the concentration giving 50% cytotoxicity. Lower therefore signals greater toxicity to the cells.

Turning to `CCOC(=O)C1=C([C@@H]2CC[C@H](C(=O)O)OC2)NC(c2nccs2)=NC1c1ccc(F)cc1Cl` (single isomer, unassigned) [Compound 265E, (cis)-5-(−6-(2-Chloro-4-fluorophenyl)-5-(ethoxycarbonyl)-2-(thiazol-2-yl)-3,6-dihydropyrimidin-4-yl)tetrahydro-2H-pyran-2-carboxylic Acid], the EC50 in data set [1] was 978 nM. In data set [2], this molecule registered a CC50 at 6 days of 92300 nM.

`CCOC(=O)C1=C(C2CCN(S(=O)(=O)[C@H]3C[C@H](C(=O)O)C3)CC2)NC(c2nccs2)=NC1c1ccccc1Cl` (stereo partly drawn) [Compound 146, (trans)-3-((4-(6-(2-chlorophenyl)-5-(ethoxycarbonyl)-2-(thiazol-2-yl)-3,6-dihydropyrimidin-4-yl)piperidin-1-yl)sulfonyl)cyclobutane-1-carboxylic Acid]: in data set [1] (setting [3]), the EC50 amounted to 68 nM. The CC50 at 6 days in data set [2] worked out at 42100 nM.

Regarding `COC[C@@H](O)CN([C@H]1CC[C@H](C2=C(C(=O)OC)C(c3ccc(F)c(F)c3Cl)N=C(c3nccs3)N2)CC1)S(C)(=O)=O` (single isomer, unassigned) [Compound 245D], the EC50 in data set [1] (setting [3]) stood at 15 nM. This molecule registered a cytotoxic concentration (CC50) at 6 days in data set [2] of 12500 nM.

`CCOC(=O)C1=C([C@@H]2CCC[C@H](C(=O)O)CC2)NC(c2nccs2)=NC1c1ccc(F)c(F)c1Cl` (relative stereo) [Compound 302C, (cis)-4-(−6-(2-Chloro-3,4-difluorophenyl)-5-(ethoxycarbonyl)-2-(thiazol-2-yl)-3,6-dihydropyrimidin-4-yl)cycloheptanecarboxylic Acid]: the EC50 in data set [1] (setting [3]) amounted to 50 nM. Besides, the CC50 at 6 days in data set [2] worked out at 10200 nM.

As for `COC(=O)C1=C(C2CCN(S(=O)(=O)c3cnn(CC(O)C(F)(F)F)c3)CC2)NC(c2nccs2)=NC1c1ccc(F)c(F)c1Cl` (stereo not shown) [Compound 325, Methyl 4-(2-chloro-3,4-difluorophenyl)-2-(thiazol-2-yl)-6-(1-((1-(3,3,3-trifluoro-2-hydroxypropyl)-1H-pyrazol-4-yl)sulfonyl)piperidin-4-yl)-1,4-dihydropyrimidine-5-carboxylate], the EC50 in data set [1] (setting [3]) is 5 nM. The same molecule registered a CC50 at 6 days in data set [2] of 7900 nM.

Turning to `COC(=O)C1=C(C23CC(N(C[C@@H](O)CO)S(C)(=O)=O)(C2)C3)NC(c2nccs2)=NC1c1ccc(F)cc1Cl` (single isomer, unassigned) [Compound 376C], the EC50 in data set [1] turned out to be 75 nM. In data set [2], this molecule had a CC50 at 6 days of 95000 nM.

As to `COC(=O)C1=C(C2CC(O)C2)NC(c2nccs2)=NC1c1ccc(F)cc1Cl` (stereo not shown) [Compound 295, Methyl 4-(2-chloro-4-fluorophenyl)-6-(3-hydroxycyclobutyl)-2-(thiazol-2-yl)-1,4-dihydropyrimidine-5-carboxylate], in data set [1] (setting [3]), the EC50 was found to be 215 nM. In data set [2], this molecule yielded a CC50 at 6 days of 64200 nM.

Turning to `COC(=O)C1=C(C23CC(NS(C)(=O)=O)(C2)C3)NC(c2nccs2)=NC1c1ccc(F)c(F)c1Cl` (stereo not shown) [Compound 204A, Methyl 4-(2-chloro-3,4-difluorophenyl)-6-(3-(methyl-sulfonamido)bicyclo[0.1.1.1]pentan-1-yl)-2-(thiazol-2-yl)-1,4-dihydropyrimidine-5-carboxylate], in data set [1] (setting [3]), the EC50 amounted to 7 nM. The CC50 at 6 days in data set [2] was found to be 23800 nM.

With `COC(=O)C1=C(C2CCOCC2)NC(c2nccs2)=NC1c1ccc(F)cc1Cl` (stereo not shown) [Compound 51, Methyl 4-(2-chloro-4-fluorophenyl)-6-(tetrahydro-2H-pyran-4-yl)-2-(thiazol-2-yl)-1,4-dihydropyrimidine-5-carboxylate], the EC50 in data set [1] (setting [3]) is 112 nM. This molecule showed a CC50 at 6 days in data set [2] of 9900 nM.

For the molecule `COCCOCCOCCOCCS(=O)(=O)N1CCC(C2=C(C(=O)OC)C(c3ccc(F)cc3Cl)N=C(c3nccs3)N2)CC1` (stereo not shown) [Compound 460, Methyl 6-(1-(2,5,8,11-tetraoxatridecan-13-ylsulfonyl)piperidin-4-yl)-4-(2-chloro-4-fluorophenyl)-2-(thiazol-2-yl)-1,4-dihydropyrimidine-5-carboxylate], the EC50 in data set [1] (setting [3]) was found to be 8 nM. The CC50 at 6 days in data set [2] came out at 19900 nM.

Turning to `COC(=O)C1=C(C23CC(C(=O)O)(C2)C3)NC(c2nccs2)=NC1c1ccc(F)cc1Cl` (stereo not shown) [Compound 258B, 3-(6-(2-Chloro-4-fluorophenyl)-5-(methoxycarbonyl)-2-(thiazol-2-yl)-3,6-dihydropyrimidin-4-yl)bicyclo[1.1.1]pentane-1-carboxylic Acid], the EC50 in data set [1] (setting [3]) was 401 nM. For the same molecule, half-maximal cytotoxicity in data set [2] (CC50 at 6 days) was put at 27400 nM.

`COC(=O)C1=C(C2CCN(S(=O)(=O)c3cccc(C(=O)O)c3)CC2)NC(c2nccs2)=NC1c1cccc(F)c1Cl` (stereo not shown) [Compound 118, 3-((4-(6-(2-Chloro-3-fluorophenyl)-5-(methoxycarbonyl)-2-(thiazol-2-yl)-3,6-dihydropyrimidin-4-yl)piperidin-1-yl)sulfonyl)benzoic Acid]: the EC50 in data set [1] (setting [3]) is 15 nM. In data set [2], this molecule had a CC50 at 6 days of 59100 nM.

`COC(=O)C1=C(C2CC2)NC(c2nccs2)=NC1c1ccc(F)cc1Cl` (single isomer, unassigned) [Compound 90A, Methyl 4-(2-chloro-4-fluorophenyl)-6-cyclopropyl-2-(thiazol-2-yl)-1,4-dihydropyrimidine-5-carboxylate]: the EC50 in data set [1] (setting [3]) turned out to be 23 nM. In addition, the CC50 at 6 days in data set [2] stood at 26700 nM.

Take `COC(=O)C1=C([C@H]2CC[C@H](NS(C)(=O)=O)CC2)NC(c2nccs2)=NC1c1ccc(F)cc1Cl` (single isomer, unassigned) [Compound 126B, Methyl 4-(2-chloro-4-fluorophenyl)-6-(trans-4-(methyl-sulfonamido)cyclohexyl)-2-(thiazol-2-yl)-1,4-dihydropyrimidine-5-carboxylate]: the EC50 in data set [1] (setting [3]) worked out at 343 nM. For the same molecule, the CC50 at 6 days in data set [2] came to 31800 nM.

For `COC(=O)C1=C([C@H]2CC[C@H](N(CCCO)S(C)(=O)=O)CC2)NC(c2nccs2)=NC1c1ccc(F)cc1Cl` (single isomer, unassigned) [Compound 431B, (trans)-Methyl 4-(2-chloro-4-fluorophenyl)-6-(4-(N-(3-hydroxypropyl)methylsulfonamido)cyclohexyl)-2-(thiazol-2-yl)-1,4-dihydropyrimidine-5-carboxylate], the EC50 in data set [1] (setting [3]) stood at 52 nM. In data set [2], this molecule displayed a half-maximal cytotoxic concentration (CC50) at 6 days of 28100 nM.

On to `COC(=O)C1=C(C2CCN(S(C)(=O)=O)CC2)NC(c2nccs2)=NC1c1ccc(Cl)c(F)c1` (single isomer, unassigned) [Compound 124B, 4-(4-Chloro-3-fluoro-phenyl)-6-(1-methanesulfonyl-piperidin-4-yl)-2-thiazol-2-yl-1,4-dihydro-pyrimidine-5-carboxylic Acid Methyl Ester], for which the EC50 in data set [1] (setting [3]) was 85 nM. Besides, the CC50 at 6 days in data set [2] was 6600 nM.

On to `COC(=O)C1=C(C2C3CCC2CN(S(C)(=O)=O)C3)NC(c2nccs2)=NC1c1cccc(F)c1Cl` (single isomer, unassigned) [Compound 37B, Methyl 4-(2-chloro-3-fluorophenyl)-6-(3-(methylsulfonyl)-3-azabicyclo[3.2.1]octan-8-yl)-2-(thiazol-2-yl)-1,4-dihydropyrimidine-5-carboxylate], for which the EC50 in data set [1] (setting [3]) stood at 129 nM. Besides, the midpoint of cytotoxicity in data set [2], the CC50 at 6 days, lay at 5900 nM.

With `COC(=O)C1=C(C2CCN(S(=O)(=O)c3cnn([C@H]4C[C@H](C(=O)O)C4)c3)CC2)NC(c2nccs2)=NC1c1ccc(F)cc1Cl` (stereo partly drawn) [Compound 470, (trans)-3-(4-((4-(6-(2-Chloro-4-fluorophenyl)-5-(methoxycarbonyl)-2-(thiazol-2-yl)-3,6-dihydropyrimidin-4-yl)piperidin-1-yl)sulfonyl)-1H-pyrazol-1-yl)cyclobutanecarboxylic Acid], in data set [1] (setting [3]), the EC50 is 56 nM. The molecule further displayed a CC50 at 6 days in data set [2] of 20100 nM.

For `COC(=O)C1=C(C2CCN(C(=O)C3(C(=O)OC)CC3)CC2)NC(c2nccs2)=NC1c1ccc(F)cc1Cl` (stereo not shown) [Compound 108, Methyl-4-(2-chloro-4-fluorophenyl)-6-(1-(1-(methoxycarbonyl)-cyclopropane-1-carbonyl)piperidin-4-yl)-2-(thiazol-2-yl)-1,4-dihydropyrimidine-5-carboxylate], the EC50 in data set [1] (setting [3]) worked out at 77 nM. Also, in data set [2], the CC50 at 6 days stood at 26900 nM.

For `CCOC(=O)C1=C([C@H]2CC[C@H](C(=O)OC)CC2)NC(c2nccs2)=NC1c1cccc(F)c1Cl` (relative stereo) [Compound 22Y, Ethyl 4-(2-chloro-3-fluorophenyl)-6-(trans-4-(methoxycarbonyl)-cyclohexyl)-2-(thiazol-2-yl)-1,4-dihydropyrimidine-5-carboxylate], in data set [1] (setting [3]), the EC50 amounted to 224 nM. Moreover, the CC50 at 6 days in data set [2] is 75900 nM.

For `COC(=O)C1=C(C2CCC(C(=O)O)C2)NC(c2nccs2)=NC1c1ccc(F)cc1Cl` (single isomer, unassigned) [Compound 72C, 3-(6-(2-Chloro-4-fluorophenyl)-5-(methoxycarbonyl)-2-(thiazol-2-yl)-3,6-dihydropyrimidin-4-yl)cyclopentanecarboxylic Acid], the EC50 in data set [1] is 475 nM. In data set [2], this molecule had a CC50 at 6 days of 22100 nM.

For the molecule `COC(=O)C1=C(C2CCN(S(=O)(=O)c3cnn(C4CC4)c3)CC2)NC(c2nccs2)=NC1c1ccc(F)cc1Cl` (stereo not shown) [Compound 254], the EC50 in data set [1] (setting [3]) amounted to 47 nM. Further, in data set [2], the CC50 at 6 days was more than 100000 nM.

As to `COC(=O)C1=C(C2CN(S(=O)(=O)c3ccccc3)C2)NC(c2nccs2)=NC1c1ccc(F)cc1Cl` (single isomer, unassigned) [Compound 130A, 6-(1-Benzenesulfonyl-azetidin-3-yl)-4-(2-chloro-4-fluoro-phenyl)-2-thiazol-2-yl-1,4-dihydro-pyrimidine-5-carboxylic acid methyl ester], in data set [1] (setting [3]), the EC50 is 317 nM. In addition, the half-maximal cytotoxic concentration (CC50) at 6 days in data set [2] is more than 10000 nM.

These data come from patent publication US11639350B2, “Heteroaryldihydropyrimidine derivatives and methods of treating hepatitis B infections” (Janssen Pharmaceutica NV, priority 2018, dated 2023).
